Laboratory results published in patent US7488738B2, “Aminophenoxyacetic acid derivatives and pharmaceutical composition containing thereof” (Asubio Pharma Co., Ltd., priority 1998, dated 2009).

Tests used:
calbindin D28Kd = test: Calbindin D28Kd inducing effect (western blot); format: cell-based, rats of Wister strain; conditions: fetal rat cerebral cortex cells, none-treated control = 100
Procedure: Biological Test 2: Calbindin D28Kd Inducing Effect
In accordance with the method of M. P. Mattoson [M. P. Mattoson, Brain Res. Rev., 13, 179 (1988)], brain of 18-days fetus rats of Wister strain were taken out. Then, cells of cerebral cortex (5,500 cells/m^2) were seeded on poly-L-lysine coated 6 wells plate (Falcon) (3.5 mm, Sumilon) and incubated for 7 days.
Test compounds were added on culture day 5, and after 7 days of incubation, the protein was extracted with homogenized buffer-solution [containing 20 mM of Tris-HCl (pH=7.4), 1 mM of EDTA, and 0.1 mM of phenylmethylsulfonyl fluoride].
The effect of the test compounds was determined by the western blot technique using polyclonal anti calbindine D28K (Swant Co., Ltd.) as antibody.
In the table, the amount of induced calbindine D28Kd of the control group (none-treated group) was indicated as 100 percents.

[1] = test system: rats of slc:Wister strain; test: Cerebral edema suppressing effect (brain injury by metal screw); format: in vivo; conditions: rat, water content of injured hemisphere 6 days after operation
Procedure: Biological Test 3: Cerebral Edema Suppressing Effect 8-week-old rats of slc:Wister strain were used. Rats were anesthetized by intraperitoneal administration of 50 mg/kg of Nembutal (Trade Name), and then, fixed on brain fixactor. The sterile metal screw (3.75 mm in length/1.0 mm in diameter/0.75 mm in length of screw thread) was plugged in the 1.5 mm right and 0.8 mm rear side of the bregma to press frontparietal cortex organ to cause brain injury. 6 days after the operation, the whole brain was taken out and right cerebral hemisphere (injured side) was isolated. After measurement of the wet weight of the cerebral hemisphere, it was dried at 110° C. for 24 hours on aluminum foil. The dry weight of the cerebral hemisphere was measured, and the water content was calculated by using the following formula: Water content (%)=[(wet weight of hemisphere−dry weight of hemisphere)/wet weight of hemisphere]×100 The test compounds were intravenously administered just after the operation via tail vein of the rats.

cells of cerebral cortex = test: Cytoprotective effect against glutamate induced cell death (MTT); format: cell-based, rats of Wister strain; conditions: compound 1 μM added 24 h before 1 mM glutamate, fetal rat cerebral cortex cells, control group = 100%; for viability at 1 µM: read-out: Survival Rate (%) (Compound: 1 μM)
Procedure: Biological Test 1: Cytoprotective Effect Against Glutamate Induced Cell Death
In accordance with the method of M. P. Mattoson [M. P. Mattoson, Brain Res. Rev., 13, 179 (1988)], brain of 18-days fetus rats of Wister strain were taken out. Then, cells of cerebral cortex (4×10^5 cells/ml) were seeded on poly-L-lysine coated 96 wells flat bottom plate (Sumitomo Bakelite Co., Ltd.) in concentration of 4×10^4 cells/each well. After 48 hours of incubation, 1 μM of test compounds were added, then after further 24 hours, 1 mM of glutamate were further added for inducing the cell injury. 12 hours after adding glutamate, MTT [3-(4,5-dimethylthiazol)-2,5-diphenyltetrazolium bromide] was added and incubated for 6 hours.
After incubation, 200 μl of dimethy sulfoxide was added to each wells, and the amounts of reduced MTT were calorimetrically analyzed by Micro ELISA Reader using 570 nm of main-wavelength and 650 nm of sub-wavelength.
The effect of the test compounds was determined as the survival rate of living cells (%) according to the following equation: Survival rate of living cells (%)=[(test compound group−glutamate treated group)÷(control group−glutamate treated group)]×100
That is, the survival rate of living cells after incubation of the control group was converted to 100%, and the survival data of living cells of the tested compounds was shown in Table II.

[2] = 3 mg/kg intravenously just after operation
[3] = 1 mg/kg intravenously just after operation

Row | Compound | Amount of induced Calbindine D28Kd (% vs. control) (Compound: 1 μM) (calbindin D28Kd) | Cerebral edema suppressing rate (%) [1, 2] [%] | Survival Rate (%) (Compound: 1 μM) (cells of cerebral cortex) | Cerebral edema suppressing rate (%) [1, 3] [%] | viability at 1 µM (cells of cerebral cortex) [%]
1 | Cc1cc(OCC(=O)N(C)C2CCN(CC(=O)Nc3ccccc3)CC2)c(C)c(C)c1N [Compound 29, 2-(4-Amino-2,3,5-trimethylphenoxy)-N-[1-(2-anilino-2-oxyethyl)-4-piperidinyl]-N-methylacetamide] | 122 | 30.9 | – | – | –
2 | Cc1c(C)c(NCC(=O)N(C)C2CCN(CCc3ccccc3)CC2)c(C)c(C)c1N [Compound 40, 2-(4-Amino-2,3,5,6-tetramethylanilino)-N-methyl-N-[1-(2-phenethyl)-4-piperidinyl]acetamide] | 150 | 20.5 | 108 | 31.1 | –
3 | Cc1cc(OC(C)(C)C(=O)N(C)C2CCN(CC(=O)Nc3ccccc3)CC2)c(C)c(C)c1N [Compound 42, 2-(4-Amino-2,3,5-trimethylphenoxy)-2-methyl-N-[1-(2-anilino-2-oxyethyl)-4-piperidinyl]-N-methylpropamide] | – | 31.0 | 131 | 24.5 | –
4 | Cc1cc(OCC(=O)NC2CCN(CC(=O)NC3(c4ccccc4)CC3)CC2)c(C)c(C)c1N [Compound 104, 2-(4-Amino-2,3,5-trimethylphenoxy)-N-[1-(2-(1-phenylcyclopropyl)amino-2-oxyethyl)-4-piperidinyl]acetamide] | – | 18.9 | 117 | – | –
5 | Cc1cc(OCC(=O)N(C)C2CCN(CC(=O)N(C)c3ccccc3)CC2)c(C)c(C)c1N [Compound 105, 2-(4-Amino-2,3,5-trimethylphenoxy)-N-methyl-N-[1-(2-(N-methylanilino)-2-oxyethyl)-4-piperidinyl]acetamide] | – | 23.2 | 86 | – | –
6 | Cc1cc(OCC(=O)NC2CCN(CC(=O)N(C)c3ccccc3)CC2)c(C)c(C)c1N [Compound 108] | – | 20.3 | – | – | –
7 | Cc1c(C)c(NCC(=O)N(C)C2CCN(CC(C(=O)O)c3ccccc3)CC2)c(C)c(C)c1N (stereo not drawn) [Compound 109, 3{4-[[2-(4-Amino-2,3,5,6-tetramethylanilino)-acetyl](methyl)amino]-1-piperidino}-2-phenylpropionic acid] | – | 24.7 | 76 | – | –
8 | Cc1c(C)c(NCC(=O)N(C)C2CCN(CC(=O)c3ccccc3)CC2)c(C)c(C)c1N [Compound 111, 2-(4-Amino-2,3,5,6-tetramethylanilino)-N-methyl-[1-(2-phenyl-2-oxyethyl)-4-piperidinyl]acetamide] | 167 | 25.0 | 84 | – | –
9 | Cc1c(C)c(NCC(=O)N(C)C2CCN(CC(O)c3ccccc3)CC2)c(C)c(C)c1N (stereo not drawn) [Compound 112, 2-(4-Amino-2,3,5,6-tetramethylanilino)-N-[1-(2-hydroxy-2-phenylethyl)-4-piperidinyl]-N-methylacetamide] | – | 20.7 | – | – | 76
10 | Cc1c(C)c(NCC(=O)N(C)C2CCN(CC3CC3)CC2)c(C)c(C)c1N [Compound 113] | – | 20.0 | 74 | – | –
11 | Cc1c(C)c(NCC(=O)N(C)C2CCN(CCN3CCOCC3)CC2)c(C)c(C)c1N [Compound 119, 2-(4-Amino-2,3,5,6-tetramethylanilino)-N-methyl-N-{1-[2-(4-morpholinyl)ethyl]-4-piperidinyl}acetamide] | – | – | – | 21.6 | 115
12 | Cc1cc(C)c(NCC(=O)N(C)C2CCN(C(=O)c3ccccc3)CC2)c(C)c1N [Compound 128, 2-(3-Amino-2,4,6-trimethylanilino)-N-(1-benzoyl-4-piperidinyl)-N-methylacetamide] | 171 | 20.3 | – | – | 81
13 | Cc1cc(C)c(NCC(=O)N(C)C2CCN(S(=O)(=O)c3ccccc3)CC2)c(C)c1N [Compound 130, 2-(3-Amino-2,4,6-trimethylanilino)-N-methyl-N-[1-(phenylsulfonyl)-4-piperidinyl]acetamide] | – | – | – | – | 60
14 | Cc1cc(C)c(NCC(=O)N(C)C2CCN(Cc3ccccc3)CC2)c(C)c1N [Compound 131, 2-(3-Amino-2,4,6-trimethylanilino)-N-(1-benzyl-4-piperidinyl)-N-methylacetamide] | – | – | – | – | 65
15 | CCCCN1CCC(N(C)C(=O)CNc2c(C)cc(C)c(N)c2C)CC1 [Compound 132, 2-(3-Amino-2,4,6-trimethylanilino)-N-(1-butyl-4-piperidinyl)-N-methylacetamide] | – | – | – | 30.4 | 60
16 | Cc1cc(C)c(NCC(=O)N(C)C2CCN(Cc3ccc4ccccc4c3)CC2)c(C)c1N [Compound 133, 2-(3-Amino-2,4,6-trimethylanilino)-N-methyl-N-[1-(2-naphthyl)methyl-4-piperidinyl]acetamide] | – | – | – | – | 101
17 | Cc1cc(C)c(NCC(=O)N(C)C2CCN(C(=O)c3cccc(C(F)(F)F)c3)CC2)c(C)c1N [Compound 134, 2-(3-Amino-2,4,6-trimethylanilino)-N-methyl-N-[1-(3-trifluoromethylbenzoyl)-4-piperidinyl]acetamide] | – | 35.0 | – | 27.9 | 79
18 | Cc1cc(C)c(N(C)C)c(C)c1NCC(=O)N(C)C1CCN(C(=O)c2ccccc2)CC1 [Compound 135, N-(1-benzoyl-4-piperidinyl)-2-(3-dimethylamino-2,4,6-trimethylanilino)-N-methylacetamide] | – | – | – | – | 76
19 | CN(C(=O)CNc1cc(Cl)c(N)cc1Cl)C1CCN(CCc2ccccc2)CC1 [Compound 138, 2-(4-Amino-2,5-dichloroanilino)-N-methyl-N-[1-(2-phenethyl)-4-piperidinyl]acetamide] | – | – | 42 | – | –
20 | CN(C(=O)CNc1c(Cl)cc(N)cc1Cl)C1CCN(CC(=O)Nc2ccccc2)CC1 [Compound 139, 2-(4-Amino-2,6-dichloroanilino)-N-[1-(2-anilino-2-oxyethyl)-4-piperidinyl]-N-methylacetamide] | – | – | 53 | – | –
